Assays:
[1] = tested on: Soybean (Glycine max); assay: Upland soil application test, crop injury soybean; format: in vivo; conditions: soil application one day after seeding, 50 g ai/a, wettable powder, fresh weight on 50th day after spray
Method: (§1) Resin-made 1/1000-are pots were filled with the soil of an upland field. After they were fertilized, cotton and soybean were seeded and 3 cm soil covering was applied. In addition, amaranth, common lambs-quarters, barnyardgrass, green foxtail, large crabgrass and johnsongrass were seeded and 1 cm soil covering was applied. One day later, a wettable powder prepared from a predetermined amount of each test compound in a similar manner to the procedures described in Formulation Example 1 was diluted with water and then sprayed evenly at an application rate equal to 10 l per are onto the surface of the soil by means of a pressure-operated sprayer. The weeds and crops were allowed to grow in a green house and influence to them were observed on the 50th day after the spray. The degree of damages of each test plant and the degree of injury to each crop were determined by measuring fresh weight in each group and indicated by % calculated according to the following formula. [formula]

[2] = tested on: ALS (acetolactate syntase) from pea seedlings; assay: ALS (acetolactate syntase) inhibition test, pea enzyme; format: biochemical; conditions: 10,000 ppm (0.5 μg/0.5 ml) of compound; 1 hour at 30° C.; absorbance at 525 nm
Method: (§2) To determine the selectivity in enzyme level between crops and weeds, an ALS inhibition test was conducted using pea as a typical broadleaf crop and barnyardgrass as a representative gramineous weeds.
(§3) After seeds of pea and barnyardgrass were allowed to germinate at 25° C. for 8-14 days in a dark place, partially-purified suspensions (Suspensions A) of acetolactate syntase were separately obtained from the seedlings in accordance with the procedures described in the literature, Plant Physiology, 75, 827-831. In a test tube, 0.5 mg of one of test compounds was weighed, followed by the addition of 0.15 ml of a 20 mM K2 HPO4 solution and 0.25 ml of a reaction substrate medium which consisted of 40 mM of K2 HPO4, 40 mM of sodium pyruvate, 1 mM of TPP, 1 mM of MgCl2 and 20 μM of FAD so that 0.4 ml of a reaction solution (Solution B) was prepared. Added to 0.4 ml of Solution B was 0.1 ml of Suspension A. After the resultant mixture was shaken for 1 hour in a thermostat water bath controlled at 30° C., 50 μl of 6N sulfuric acid were added to terminate the reaction.
(§4) Next, the test tube with the reaction-terminated liquid mixture contained therein was transferred into a thermostat water bath controlled at 60° C. and was heated for 15 minutes. Thereafter, 0.5 ml of a 0.5% creatine solution and 0.5 ml of a 5% alkaline α-naphthol solution were added, and the resultant mixture was maintained at 60° C. for 15 minutes. As a result, the test solution developed a pink-to-red color. After the above operation, the absorbance of the test solution at 525 nm was measured by a spectrophotometer (Absorbance 1 of Test Compound).
(§5) Further, the absorbance (Absorbance 2 of Blank) of a solution obtained by subjecting a portion of Solution B to the above procedures without addition of any test compound and the absorbance (Absorbance 3 of sulfuric acid) of another solution obtained by subjecting another portion of Solution B to the above procedures which using 50 μl of 6N sulfuric acid as a test compound were also measured.

[3] = tested on: Barnyardgrass (Echinochloa crusgalli); assay: Upland soil application test, barnyardgrass; format: in vivo; conditions: Echinochloa crus-galli, 1200 h; soil application one day after seeding, 50 g ai/a, wettable powder, fresh weight on 50th day after spray; read-out: Herbicidal effects Barnyardgrass (Echinochloa crusgalli)
Method: as §1

[4] = tested on: Amaranth (Amaranthus viridis); assay: Upland foliar application test, amaranth; format: in vivo; conditions: 960 h, foliar application at stage of 2-3 leaves, 50 g ai/a, emulsion, 40th day after spray, read-out: Herbicidal effects Amaranth (Amaranthus viridis)
Method: as §1
(§6) Resin-made 1/1000-are pots were filled with the soil of an upland field. After they were fertilized, cotton and soybean were seeded and 3 cm soil covering was applied. Five days later, amaranth, common lambsquarters, barnyardgrass, green foxtail, large crabgrass and johnsongrass were seeded and 1 cm soil covering was applied. They were allowed to grow in a green house. When each plant grew to the stage of 2-3 leaves, an emulsion formulated from a predetermined amount of each test compound in a similar manner to the procedures described in Formulation Example 11 was diluted with water and then sprayed at a predetermined application rate by means of a pressure-operated sprayer. The application rate was controlled at 5 l per are. Influence to the crops and weeds were observed on the 40th day after the spray of the herbicides. The results are shown in Table 4 in which the degree of damages of each test plant and the degree of injury to each crop are shown in a similar manner to Test 2.

[5] = tested on: Barnyardgrass (Echinochloa crusgalli); assay: Upland foliar application test, barnyardgrass; format: in vivo; conditions: Echinochloa crus-galli, 960 h; foliar application at stage of 2-3 leaves, 50 g ai/a, emulsion, 40th day after spray; read-out: Herbicidal effects Barnyardgrass (Echinochloa crusgalli)
Method: as §6

[6] = tested on: common lambsquarters; assay: Upland foliar application test, common lambsquarters; format: in vivo; conditions: Chenopodium album, 960 h; foliar application at stage of 2-3 leaves, 50 g ai/a, emulsion, 40th day after spray; read-out: Herbicidal effects Common lambquarters
Method: as §6

[7] = tested on: ALS (acetolactate syntase) from barnyardgrass seedlings; assay: ALS (acetolactate syntase) inhibition test, barnyardgrass enzyme; format: biochemical; conditions: 10,000 ppm (0.5 μg/0.5 ml) of compound; 1 hour at 30° C.; absorbance at 525 nm
Method: as §2, §3, §4, §5

[8] = tested on: Soybean (Glycine max); assay: Upland foliar application test, crop injury soybean; format: in vivo; conditions: foliar application at stage of 2-3 leaves, 50 g ai/a, emulsion, 40th day after spray
Method: as §6

[9] = tested on: Johnsongrass; assay: Upland foliar application test, johnsongrass; format: in vivo; conditions: Sorghum halepense, 960 h; foliar application at stage of 2-3 leaves, 50 g ai/a, emulsion, 40th day after spray; read-out: Herbicidal effects Johnsongrass
Method: as §6

[10] = tested on: Cotton (Gossypium indicum); assay: Upland foliar application test, crop injury cotton; format: in vivo; conditions: foliar application at stage of 2-3 leaves, 50 g ai/a, emulsion, 40th day after spray
Method: as §1, §6

[11] = tested on: Crabgrass (Digitaria adscendens); assay: Upland foliar application test, large crabgrass; format: in vivo; conditions: 960 h, foliar application at stage of 2-3 leaves, 50 g ai/a, emulsion, 40th day after spray, read-out: Herbicidal effects Crabgrass (Digitaria adscendens)
Method: as §1, §6

[12] = tested on: Cotton (Gossypium indicum); assay: Upland soil application test, crop injury cotton; format: in vivo; conditions: soil application one day after seeding, 50 g ai/a, wettable powder, fresh weight on 50th day after spray
Method: as §1

[13] = tested on: Crabgrass (Digitaria adscendens); assay: Upland soil application test, large crabgrass; format: in vivo; conditions: 1200 h, soil application one day after seeding, 50 g ai/a, wettable powder, fresh weight on 50th day after spray, read-out: Herbicidal effects Crabgrass (Digitaria adscendens)
Method: as §1

[14] = tested on: Amaranth (Amaranthus viridis); assay: Upland soil application test, amaranth; format: in vivo; conditions: 1200 h, soil application one day after seeding, 50 g ai/a, wettable powder, fresh weight on 50th day after spray, read-out: Herbicidal effects Amaranth (Amaranthus viridis)
Method: as §1

[15] = tested on: Foxtail (Setaria viridis); assay: Upland foliar application test, green foxtail; format: in vivo; conditions: 960 h, foliar application at stage of 2-3 leaves, 50 g ai/a, emulsion, 40th day after spray, read-out: Herbicidal effects Foxtail (Setaria viridis)
Method: as §1, §6

[16] = tested on: Johnsongrass; assay: Upland soil application test, johnsongrass; format: in vivo; conditions: Sorghum halepense, 1200 h; soil application one day after seeding, 50 g ai/a, wettable powder, fresh weight on 50th day after spray; read-out: Herbicidal effects Johnsongrass
Method: as §1

[17] = tested on: common lambsquarters; assay: Upland soil application test, common lambsquarters; format: in vivo; conditions: Chenopodium album, 1200 h; soil application one day after seeding, 50 g ai/a, wettable powder, fresh weight on 50th day after spray; read-out: Herbicidal effects Common lambquarters
Method: as §1

[18] = tested on: Foxtail (Setaria viridis); assay: Upland soil application test, green foxtail; format: in vivo; conditions: 1200 h, soil application one day after seeding, 50 g ai/a, wettable powder, fresh weight on 50th day after spray, read-out: Herbicidal effects Foxtail (Setaria viridis)
Method: as §1

[19] = tested on: johnsongrass emerging from rhizome; assay: Application test on johnsongrass emerging from rhizome; format: in vivo; conditions: foliar application at stage of 4-5 leaves, application rate of active ingredient 20 (unit not given), emulsion, 50th day after spray
Method: as §1
Resin-made 1/1000-are pots were filled with the soil of an upland field. After they were fertilized, rhizome of johnsongrass were transplanted to the pots and 3 cm soil covering was applied. They were allowed to grow in a green house. When each johnsongrass grew to the stage of 4-5 leaves, an emulsion formulated from a predetermined amount of each test compound in a similar manner to the procedures described in Formulation Example 11 was diluted with water and then sprayed at a predetermined application rate by means of a pressure-operated sprayer. The application rate was controlled at 5 l per are. The effect of each compound against the johnsongrass emerging from its rhizome was observed on the 50th day after the spray of the herbicides. The results are shown in Table 5 in which the herbicidal effect against johnsongrass is shown in a similar manner to Test 2.

COC(=O)c1ccccc1Oc1nc(OC)cc(OC)n1 [Comp. Comp'd A, reference compound]
72%: Enzymoreaction inhibition rate (%) Pea [2]
60%: Herbicidal effect against johnsongrass emerging from rhizome [19]
100%: Crop injury Soybean (Glycine max) [1] | pest or weed control at 5000 g/ha [3] | pest or weed control at 5000 g/ha [4] | pest or weed control at 5000 g/ha [5] | pest or weed control at 5000 g/ha [6] | Crop injury Soybean (Glycine max) [8] | pest or weed control at 5000 g/ha [9] | Crop injury Cotton (Gossypium indicum) [10] | pest or weed control at 5000 g/ha [11] | Crop injury Cotton (Gossypium indicum) [12] | pest or weed control at 5000 g/ha [13] | pest or weed control at 5000 g/ha [14] | pest or weed control at 5000 g/ha [15] | pest or weed control at 5000 g/ha [16] | pest or weed control at 5000 g/ha [17] | pest or weed control at 5000 g/ha [18]
73%: Enzymoreaction inhibition rate (%) Barnyardgrass [7]

CCCCOC(OCCCC)c1ccccc1Oc1nc(OC)cc(OC)n1 [Compound No. 3, 2-(4,6-dimethoxypyrimidin-2-yloxy)benzaldehyde di-n-butylacetal]
100%: pest or weed control at 5000 g/ha [3] | pest or weed control at 5000 g/ha [4] | pest or weed control at 5000 g/ha [5] | pest or weed control at 5000 g/ha [6] | Enzymoreaction inhibition rate (%) Barnyardgrass [7] | pest or weed control at 5000 g/ha [9] | pest or weed control at 5000 g/ha [11] | pest or weed control at 5000 g/ha [13] | pest or weed control at 5000 g/ha [14] | pest or weed control at 5000 g/ha [15] | pest or weed control at 5000 g/ha [16] | pest or weed control at 5000 g/ha [17] | pest or weed control at 5000 g/ha [18] | Herbicidal effect against johnsongrass emerging from rhizome [19]
0%: Crop injury Soybean (Glycine max) [1] | Enzymoreaction inhibition rate (%) Pea [2] | Crop injury Soybean (Glycine max) [8] | Crop injury Cotton (Gossypium indicum) [10] | Crop injury Cotton (Gossypium indicum) [12]

Source: US5178662A, “Benzaldehyde acetal compounds, preparation process thereof, and herbicidal compositions containing the same as active ingredients” (Mitsui Toatsu Chemicals, Inc., priority 1990, dated 1993)
